Laboratory results as given in the NIST ThermoML archive (doi:10.1021/je700408x).
± gives the expanded uncertainty stated by the source.

Conditions: Liquid; for mass density: 303.15 K, 101.33 kPa, Pycnometric method; for vapor or sublimation pressure / Normal boiling temperature: Ebulliometric method (Recirculating still)

SMILES | mass density | vapor or sublimation pressure (345.45 K) | Normal boiling temperature | vapor or sublimation pressure (460.95 K) | vapor or sublimation pressure (355.05 K) | vapor or sublimation pressure (391.95 K) | vapor or sublimation pressure (357.75 K) | vapor or sublimation pressure (417.05 K)
CC(Cl)(Cl)Cl [1,1,1-trichloroethane] | 1320.97 ± 9.8 kg/m3 | 95.3 ± 2 kPa | 74.20 ± 0.41 °C | – | – | – | – | –
C[S+](C)[O-] [dimethyl sulfoxide] | 1090.4 ± 6.7 kg/m3 | – | 189.04 ± 0.41 °C | 95.3 ± 2 kPa | – | – | – | –
ClCCCl [1,2-dichloroethane] | 1238.41 ± 8.6 kg/m3 | – | 83.80 ± 0.41 °C | – | 95.3 ± 2 kPa | – | – | –
ClC(Cl)=C(Cl)Cl [tetrachloroethene] | 1606.39 ± 14 kg/m3 | – | 121.00 ± 0.41 °C | – | – | 95.3 ± 2 kPa | – | –
ClC=C(Cl)Cl [trichloroethene] | 1451.42 ± 12 kg/m3 | – | 87.10 ± 0.41 °C | – | – | – | 95.3 ± 2 kPa | –
ClC(Cl)C(Cl)Cl [1,1,2,2-tetrachloroethane] | 1578.59 ± 14 kg/m3 | – | 145.20 ± 0.41 °C | – | – | – | – | 95.3 ± 2 kPa
